Source: BindingDB's records for doi:10.1124/jpet.300.1.305 (Merck Research Laboratories, 2002)
Square brackets hold non-standard residues; d marks the D form. Peptide text beside a SMILES is read from it. NMeR = CN[C@@H](CCCNC(=N)N)C(=O)O; Tle = CC(C)(C)[C@H](N)C(=O)O

Key:
[1] = target: Neurotensin receptor type 2 (Mus musculus, UniProt P70310)
[2] = target: Neurotensin receptor type 1 (Mus musculus, UniProt O88319)
Chain of Neurotensin receptor type 1 (O88319 whole entry): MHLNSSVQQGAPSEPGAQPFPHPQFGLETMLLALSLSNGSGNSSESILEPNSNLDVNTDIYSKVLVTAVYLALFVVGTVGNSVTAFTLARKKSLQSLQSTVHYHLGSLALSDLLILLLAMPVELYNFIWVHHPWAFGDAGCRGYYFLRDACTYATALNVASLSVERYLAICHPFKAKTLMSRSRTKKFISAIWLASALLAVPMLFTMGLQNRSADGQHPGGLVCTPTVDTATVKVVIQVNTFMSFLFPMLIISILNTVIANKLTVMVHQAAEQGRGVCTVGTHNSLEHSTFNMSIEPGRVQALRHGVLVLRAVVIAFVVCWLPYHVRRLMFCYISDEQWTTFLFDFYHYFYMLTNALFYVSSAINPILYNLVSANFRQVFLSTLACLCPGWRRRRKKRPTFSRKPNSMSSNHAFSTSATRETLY

Chain of Neurotensin receptor type 2 (P70310 whole entry): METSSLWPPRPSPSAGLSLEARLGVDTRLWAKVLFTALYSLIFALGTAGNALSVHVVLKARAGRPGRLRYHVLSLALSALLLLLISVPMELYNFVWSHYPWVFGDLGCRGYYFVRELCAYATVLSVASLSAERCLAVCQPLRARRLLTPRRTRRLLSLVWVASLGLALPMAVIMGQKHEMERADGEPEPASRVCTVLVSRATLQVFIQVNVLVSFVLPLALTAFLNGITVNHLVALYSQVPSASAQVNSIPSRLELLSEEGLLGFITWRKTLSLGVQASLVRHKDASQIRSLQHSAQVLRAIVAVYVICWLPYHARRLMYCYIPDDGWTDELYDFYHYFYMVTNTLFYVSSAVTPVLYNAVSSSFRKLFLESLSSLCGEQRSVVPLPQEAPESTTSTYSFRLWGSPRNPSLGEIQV

## CC1CN(C2CCC(C#N)(c3ccc(F)cc3)CC2)CCC1(C(=O)O)c1ccccc1 (stereo not given) [NSC_54385]
[1]
  Ki: 17 nM

## H-KNPYIL-OH [NSC_128644]
[2]
  Ki: 0.25 nM
[1]
  Ki: 7 nM

## CN[C@@H](CCCNC(=N)N)C(=O)N[C@@H](CCCCN)C(=O)N1CCC[C@H]1C(=O)N[C@@H](Cc1c[nH]c2ccccc12)C(=O)N[C@H](C(=O)N[C@@H](CC(C)C)C(=O)O)C(C)(C)C (H-[NMeR]KPW[Tle]L-OH)
[2]
  Ki: 0.11 nM
[1]
  Ki: 3.8 nM
